How the values were obtained:
[1] = Exudation of active agents from gel specimens to filter paper discs, quantified by UV, MS, GC and/or HPLC after extraction; format: physicochemical; settings: for Active Agent Transferred from Gel to Filters: 37° C., 0.40 psi; for Total Active Agent Exuded from Gel: cumulative
Experimental: Sample filter paper discs were placed in contact with gel specimens of same diameter under constant low pressure (0.40 psi. (2.8 Mpa)) at 37° C. Multiple time-controlled exposures of the filter paper to the gel were preformed in succession to same side of gel. Quantification of active agent transferred to the filter paper discs was determined by UV, MS, GC and or HPLC analysis after extraction of active agent from the filter paper. Exudation rates was expressed as μg/unit time per unit surface area.
This compound was then divided into three aliquots' of approximately 10 grams each and poured into a 2.625″ diameter aluminum petri dish and allowed to cool to create individual gel samle discs. Subsequently, absorbent cellulose filter blotter paper was die cut to enough 2.625″ diameter discs to be employed as a wicking media for repeated exposure in direct contact with the gel compound under specific conditions as follows.
(§1) Exposure Conditions: 37-40 deg. C., Sample filter paper discs in contact with gel specimens of same diameter were stacked in […]. aluminum petri dishes, gel specimen diameter 2.625″×0.125″ thick, filter paper disc diameter 2.625″ with another petri dish and a 1 kg dead weight on top of stack. Pressure calculated at ˜0.407 psi. (2.8 Mpa) constant. Two replicates per test condition. Repeat exposures at 3 hours then repeat three exposures of 18 hours each, changing discs but keeping same gel specimen and same side of each gel specimen in contact with each successive filter paper disc sample.
The filter paper disc specimens aa through kk were then sent to an analytical laboratory for HPLC and GC analysis along with a small sample of each individual raw ingredient so that the HPLC and GC equipment could be calibrated for the protocol being employed by the lab. This calibration allowed for determining the maximum recoverable (measurable) amount of each ingredient that could be measured using these techniques and would later be used to correct the data. The analytical laboratory then detected and measured the amount of each of the added active agents that was flushed out of the filter paper discs using wet chemistry techniques known to those skilled in the art.
The analytical data was interpreted, and the amounts of each ingredient which was exuded into each filter paper blotter disc specimen, and subsequently extracted using wet chemistry, were then entered into a data analysis spreadsheet and adjusted based on the Analytical Recovery Rate to determine actual concentration of each ingredient extracted.

[2] = Total weight of exudate (oil) absorbed by filter paper blotter discs and theoretical amount of each ingredient exuded; format: physicochemical
Experimental: as §1
Data was calculated to determine the total weight of exudate absorbed by each individual sample filter paper blotter disc test specimen. Calculations were then performed based upon the ratios of ingredients in the gel disc formula to determine the theoretical amount of each ingredient that could have been exuded from the oil if the oil contained the same ratio of ingredients as contained in the control oil sample and in the gel.

- Active Agent Transferred from Gel to Filters ([1]; Gel Specimen Number 1, 1 h filter exposure, time 0-1 h): 3578 μg per filter
- Active Agent Transferred from Gel to Filters ([1]; Gel Specimen Number 1, 3 h filter exposure, time 1-4 h): 4193 μg per filter
- Active Agent Transferred from Gel to Filters ([1]; Gel Specimen Number 1, 18 h filter exposure, time 4-22 h): 8952 μg per filter
- Active Agent Transferred from Gel to Filters ([1]; Gel Specimen Number 1, 18 h filter exposure, time 22-40 h): 8566 μg per filter
- Active Agent Transferred from Gel to Filters ([1]; Gel Specimen Number 1, 18 h filter exposure, time 40-58 h): 7193 μg per filter
- Total Active Agent Exuded from Gel ([1]; Gel Specimen Number 1, Time 1 h): 3578 µg
- Total Active Agent Exuded from Gel ([1]; Gel Specimen Number 1, Time 4 h): 7771 µg
- Total Active Agent Exuded from Gel ([1]; Gel Specimen Number 1, Time 22 h): 16723 µg
- Total Active Agent Exuded from Gel ([1]; Gel Specimen Number 1, Time 40 h): 25289 µg
- Total Active Agent Exuded from Gel ([1]; Gel Specimen Number 1, Time 58 h): 32482 µg
- Active Agent Transferred from Gel to Filters ([1]; Gel Specimen Number 2, 1 h filter exposure, time 0-1 h): 4855 μg per filter
- Active Agent Transferred from Gel to Filters ([1]; Gel Specimen Number 2, 3 h filter exposure, time 1-4 h): 5373 μg per filter
- Active Agent Transferred from Gel to Filters ([1]; Gel Specimen Number 2, 18 h filter exposure, time 4-22 h): 8916 μg per filter
- Active Agent Transferred from Gel to Filters ([1]; Gel Specimen Number 2, 18 h filter exposure, time 22-40 h): 7446 μg per filter
- Active Agent Transferred from Gel to Filters ([1]; Gel Specimen Number 2, 18 h filter exposure, time 40-58 h): 7108 μg per filter
- Total Active Agent Exuded from Gel ([1]; Gel Specimen Number 2, Time 1 h): 4855 µg
- Total Active Agent Exuded from Gel ([1]; Gel Specimen Number 2, Time 4 h): 10229 µg
- Total Active Agent Exuded from Gel ([1]; Gel Specimen Number 2, Time 22 h): 19145 µg
- Total Active Agent Exuded from Gel ([1]; Gel Specimen Number 2, Time 40 h): 26590 µg
- Total Active Agent Exuded from Gel ([1]; Gel Specimen Number 2, Time 58 h): 33699 µg
- Quantitative Analysis - Islechem u-gram extraction ([1]; Specimen aa, Hours 1, Cummulative Hours 1): 2970 u-gram
- Quantitative Analysis - Islechem u-gram extraction ([1]; Specimen bb, Hours 1, Cummulative Hours 1): 4030 u-gram
- Quantitative Analysis - Islechem u-gram extraction ([1]; Specimen cc, Hours 3, Cummulative Hours 4): 3480 u-gram
- Quantitative Analysis - Islechem u-gram extraction ([1]; Specimen dd, Hours 3, Cummulative Hours 4): 4460 u-gram
- Quantitative Analysis - Islechem u-gram extraction ([1]; Specimen ee, Hours 18, Cummulative Hours 22): 7430 u-gram
- Quantitative Analysis - Islechem u-gram extraction ([1]; Specimen ff, Hours 18, Cummulative Hours 22): 7400 u-gram
- Quantitative Analysis - Islechem u-gram extraction ([1]; Specimen gg, Hours 18, Cummulative Hours 40): 7110 u-gram
- Quantitative Analysis - Islechem u-gram extraction ([1]; Specimen hh, Hours 18, Cummulative Hours 40): 6180 u-gram
- Quantitative Analysis - Islechem u-gram extraction ([1]; Specimen ii, Hours 18, Cummulative Hours 58): 5970 u-gram
- Quantitative Analysis - Islechem u-gram extraction ([1]; Specimen kk, Hours 18, Cummulative Hours 58): 5900 u-gram
- Estimated grams of ingredient exuded (theoretical amount from ratios of ingredients in the gel disc formula) ([2]; Sample aa, Test Disc 1, Exposed 1 hours): 0.0022 grams
- Estimated grams of ingredient exuded (theoretical amount from ratios of ingredients in the gel disc formula) ([2]; Sample bb, Test Disc 1 Replicate, Exposed 1 hours): 0.0031 grams
- Estimated grams of ingredient exuded (theoretical amount from ratios of ingredients in the gel disc formula) ([2]; Sample cc, Test Disc 2, Exposed 3 hours): 0.0024 grams
- Estimated grams of ingredient exuded (theoretical amount from ratios of ingredients in the gel disc formula) ([2]; Sample dd, Test Disc 2 Replicate, Exposed 3 hours): 0.0035 grams
- Estimated grams of ingredient exuded (theoretical amount from ratios of ingredients in the gel disc formula) ([2]; Sample ee, Test Disc 3, Exposed 18 hours): 0.0062 grams
- Estimated grams of ingredient exuded (theoretical amount from ratios of ingredients in the gel disc formula) ([2]; Sample ff, Test Disc 3 Replicate, Exposed 18 hours): 0.0062 grams
- Estimated grams of ingredient exuded (theoretical amount from ratios of ingredients in the gel disc formula) ([2]; Sample gg, Test Disc 4, Exposed 18 hours): 0.0064 grams
- Estimated grams of ingredient exuded (theoretical amount from ratios of ingredients in the gel disc formula) ([2]; Sample hh, Test Disc 4 Replicate, Exposed 18 hours): 0.0057 grams
- Estimated grams of ingredient exuded (theoretical amount from ratios of ingredients in the gel disc formula) ([2]; Sample ii, Test Disc 5, Exposed 18 hours): 0.0051 grams
- Estimated grams of ingredient exuded (theoretical amount from ratios of ingredients in the gel disc formula) ([2]; Sample kk, Test Disc 5 Replicate, Exposed 18 hours): 0.0051 grams
Substance: Synthetic Menthol [S-Menthol]

Reference: US20100063008A1, “GELATINOUS ELASTOMER COMPOSITIONS” (Silipos, Inc., priority 2008, published 2010)
